Test results reported in patent US20220233553A1, “CELLULAR SENESCENCE ACTIVATING COMPOUNDS” (UNIVERSIDAD NACIONAL AUTONOMA DE MEXICO, priority 2019, published 2022).

Experiments:
[1] = Blood parameters of the treated mice
[2] = system: SW-620; assay: Cytotoxicity against colon cancer cell lines, 24, 48 and 72 hours; assay type: cell-based
[3] = system: HCT-116; assay: as above; assay type: cell-based
[4] = system: HCT-116 cancer cells; assay: Xenotransplantation study, antitumor activity; assay type: in vivo, mice; settings: for reduction in tumor size: vs untreated mouse
Description: The arrows indicate the days of compound administration, in a regimen of 1 administration per week for 3 weeks, each point represents the average and SD of 6 mice.
The arrows indicate the days of administration, with 3 administrations per week for 3 weeks, each point representing the mean±SD of 6 mice.

[5] = system: HCT-15; assay: Cytotoxicity against colon cancer cell lines, 24, 48 and 72 hours; assay type: cell-based
[6] = system: HCT-15 (colon); assay: Effect on cell lines (CI50, % growth inhibition); assay type: cell-based; settings: Homo sapiens; for IC50: HCT-15, read-out: CI50 ± EE, μM HCT-15 (colon)
[7] = system: lung (SKUL); assay: % growth inhibition in cell lines; assay type: cell-based
[8] = system: HCT-116 line; assay: Apoptosis induction, double labeling with annexin V and IP; assay type: cell-based; settings: 30 μM, 72 hours of treatment
Description: FIG. 2. Results of the apoptosis induction using a double labeling with annexin V and IP, due to the effect of compound In.

[9] = system: U251 (CNS); assay: Effect on cell lines (CI50, % growth inhibition); assay type: cell-based; settings: Homo sapiens; for IC50: U-251, read-out: CI50 ± EE, μM U251 (CNS)
[10] = system: breast (MCF-7); assay: % growth inhibition in cell lines; assay type: cell-based; settings: Homo sapiens, MCF7
[11] = system: β-galactosidase enzyme; assay: β-galactosidase activity (cellular senescence) in colon cancer cell lines; assay type: cell-based; settings: 72 hours, 30 μM, colon cancer cell lines HCT-116 and HCT-15
Protocol: FIG. 12. A) β-galactosidase activity in HCT-116 cells, B) β-galactosidase activity in HCT-15 cells, C) Cell control of the HCT-116 cell line, D) HCT-116 cells treated with In […] for 72 hours.
Now, as already mentioned above, the mechanism by which In exerts an antitumor effect without generating cytotoxicity on healthy cells is through the induction of cellular senescence.

[12] = system: PC-3 (prostate); assay: Effect on cell lines (CI50, % growth inhibition); assay type: cell-based; settings: for IC50: Homo sapiens, PC-3, read-out: CI50 ± EE, μM PC-3 (prostate)
[13] = system: proliferating cell nuclear antigen (PCNA); assay: PCNA immunolabelling of xenotransplanted tumor tissue; settings: groups treated at different doses; control group 54.81%±15.63
[14] = system: K562 (leukemia); assay: Effect on cell lines (CI50, % growth inhibition); assay type: cell-based; settings: Homo sapiens; for IC50: K562, read-out: CI50 ± EE, μM K562 (leukemia)
[15] = system: HCT-116 cell xenotransplantation; assay: Cell morphology in tumor tissues (hematoxylin-eosin, DAPI); settings: tumor tissues of treated mice vs control group
[16] = Toxicity in nu/nu mice (LD50, weight, physical or behavioral changes); assay type: in vivo
Description: FIG. 7. […] Each point in the graphs represents the mean±SD of the weight of 3 mice per experimental group.

[17] = 2 mg/Kg, administration 3 (times a week)

Work on N.N.[Cl][Pt][Cl] [Cisplatin] yielded an Alanine aminotransferase [1, 17] of 75.21 UL, an Aspartate aminotransferase [1, 17] of 197.32 UL and a Creatinine [1, 17] of 43.3 μM/l. For the same compound, the Erythrocytes [1, 17] was 7.14e+12 L⁻¹, the Glucose [1, 17] was 7.80 mmol/L and the Hemoglobin [1, 17] was 113 g/L. For the same compound, the Leukocytes [1, 17] was 1.6e+09 L, the Lymphocytes [1, 17] was 0.52 × × 10^9/l and the Urea [1, 17] was 9.06 mmol/L. The Alanine aminotransferase ([1]; 4 mg/Kg, once a week) was 62.89 UL, the Aspartate aminotransferase ([1]; 4 mg/Kg, once a week) was 151.25 UL and the Creatinine ([1]; 4 mg/Kg, once a week) was 29.06 μM/l. It also gave an Erythrocytes ([1]; 4 mg/Kg, once a week) of 7.36e+12 L⁻¹, a Glucose ([1]; 4 mg/Kg, once a week) of 8.56 mmol/L and a Hemoglobin ([1]; 4 mg/Kg, once a week) of 115 g/L. The Leukocytes ([1]; 4 mg/Kg, once a week) was 2.1e+09 L, the Lymphocytes ([1]; 4 mg/Kg, once a week) was 5.2e+08 L⁻¹ and the Urea ([1]; 4 mg/Kg, once a week) was 7.57 mmol/L. The Leukocytes ([1]; 4 mg/kg once a week and mg/kg three times a week for 3 weeks) was “decreased leukocytes”, the IC50 ([2]; SW-620, incubation 24 h) was 18 ± 0.5 µM and the IC50 ([2]; SW-620, incubation 48 h) was 13.9 ± 0.4 µM. The IC50 ([2]; SW-620, incubation 72 h) was 9.09 ± 0.3 µM, the IC50 ([3]; HCT-116, incubation 24 h) was 10.8 ± 0.7 µM and the IC50 ([3]; HCT-116, incubation 48 h) was 8.37 ± 0.5 µM. The IC50 ([3]; HCT-116, incubation 72 h) was 3.09 ± 0.3 µM, the “tumor reduction compared with In 250 mg/kg” value ([4]; 2 mg/kg three times a week for 21 days) was “equivalent” and the IC50 ([5]; HCT-15, incubation 24 h) was 12.5 ± 0.5 µM. The IC50 ([5]; HCT-15, incubation 48 h) was 10.7 ± 0.6 µM and the IC50 ([5]; HCT-15, incubation 72 h) was 4.68 ± 0.3 µM.
With CC1(C)C(=O)CC[C@]23C[C@]24CC[C@]2(C)C([C@]5(C)CC[C@H](C(C)(C)O)O5)[C@@H](O)C[C@@]2(C)C4CCC13 (some centres unmarked) [In, Argentantine A] the IC50 [6] was 31.7 ± 1.1 µM, the inhibition at 50 µM ([6]; 50 μM, HCT-15) was 31.7% and the inhibition at 50 µM [7] was 0%. The apoptosis induction [8] was “only induced apoptosis in the HCT-116 line”, the IC50 [9] was 27.3 ± 1 µM and the inhibition at 50 µM ([9]; U-251, 50 μM, U251) was 27.3%. The inhibition at 50 µM [10] was 26.6%, the β-galactosidase enzyme activity [11] was “observed predominantly in cells of the HCT-116 line” and the inhibition at 50 µM ([12]; 50 μM, PC-3) was 20.2%. It also gave an IC50 [12] of 20.2 ± 3.44 µM, an IC50 ([2]; Homo sapiens, SW-620, incubation 24 h) of 115.6 ± 0.4 µM and an IC50 ([2]; Homo sapiens, SW-620, incubation 48 h) of 72.46 ± 0.2 µM. It also gave an IC50 ([2]; Homo sapiens, SW-620, incubation 72 h) of 61.3 ± 1.2 µM, an IC50 ([3]; Homo sapiens, HCT-116, incubation 24 h) of 87.83 ± 0.7 µM and an IC50 ([3]; Homo sapiens, HCT-116, incubation 48 h) of 53.33 ± 0.2 µM. For the same compound, the IC50 ([3]; Homo sapiens, HCT-116, incubation 72 h) was 43.17 ± 0.4 µM, the “quantification of PCNA (percentage of PCNA positive cells)” value [13] was 10-20% and the “reduction in tumor size” value ([4]; 250 mg/kg once a week for 21 days) was 49.1%. The “reduction of the tumor” value ([4]; 250 mg/kg three times a week for 21 days, vs untreated mice) was 78.1%, the “reduction in tumor size” value ([4]; 500 mg/kg once a week for 21 days) was 48.8% and the IC50 [14] was 38.6 ± 4.47 µM. The inhibition at 50 µM ([14]; 50 μM, K562) was 38.6%, the “fragmented nuclei (DAPI labeling) as signal of cell death” value [15] was “no fragmented nuclei” and the “physical or behavioral changes” value ([16]; 500 mg/kg once a week and 250 mg/kg three times a week for three weeks) was “no physical or behavioral changes”. For the same compound, the weight loss ([16]; 250 and 500 mg/kg) was “does not cause weight loss”, the toxicity ([16]; 500, 250 or 125 mg/kg once a week for 3 weeks, nu/nu mice) was “does not show toxicity” and the LD50 at 3 weeks ([16]; mouse, in vivo, intraperitoneal, nu/nu mice, read-out: mean lethal dose (LD50)) was > 500 mg/kg. The IC50 ([5]; Homo sapiens, HCT-15, incubation 24 h) was 95.43 ± 0.6 µM, the IC50 ([5]; Homo sapiens, HCT-15, incubation 48 h) was 59.7 ± 1.3 µM and the IC50 ([5]; Homo sapiens, HCT-15, incubation 72 h) was 44.8 ± 0.9 µM.
For CC(=O)O[C@H]1C[C@@]2(C)C3CCC4C(C)(C)C(=O)C=C[C@@]45C[C@@]35CC[C@]2(C)C1[C@]1(C)CC[C@H](C(C)(C)OC(C)=O)O1 (some centres unmarked) [Ic], the IC50 [6] was > 100 µM, the IC50 [9] was 58.4 ± 4 µM and the IC50 [12] was 13.9 ± 0.324 µM. The IC50 [14] was > 100 µM.
In the case of CC(=O)O[C@H]1C[C@@]2(C)C3CCC4C(C)(C)/C(=N/O)CC[C@@]45C[C@@]35CC[C@]2(C)C1[C@]1(C)CC[C@H](C(C)(C)OC(C)=O)O1 (some centres unmarked) [Ig], the IC50 [6] is reported as 28.9 ± 3.17 µM, the IC50 [9] is reported as 21.4 ± 1.67 µM and the IC50 [12] is reported as 12.6 ± 2.42 µM. For the same compound, the IC50 [14] was 15.2 ± 2.35 µM.
CC1(C)c2oncc2C[C@]23C[C@]24CC[C@]2(C)C([C@]5(C)CC[C@H](C(C)(C)O)O5)[C@@H](O)C[C@@]2(C)C4CCC13 (some centres unmarked) [Ii] showed an IC50 [6] of 10.2 ± 0.77 µM, an IC50 [9] of 11.3 ± 1.55 µM and an IC50 [12] of 13 ± 3.56 µM. It also gave an IC50 [14] of 11 ± 1.05 µM.
